Among the test systems are ACHN renal; EKVX NSCLC; HOP-62 NSCLC; HOP-92 NSCLC; LOX IMVI melanoma; RXF 393 renal; SK-MEL-2 melanoma; UO-31 renal; DU-145 prostate.
What all share (test): inhibition of tumour cell growth, NCI panel, 48 h

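Following 48 hours of exposure in 96-well plates, responses at five concentrations were used to interpolate endpoints linearly. GI50 is the concentration that inhibits growth by half. TGI: total growth inhibition.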 Some results are limits rather than exact numbers.

We go through 16 compounds from PubChem BioAssay (NCI).

Take `COc1ccc(Nc2nc3cc(C(F)(F)F)ccc3nc2-c2ccccc2)cc1OC`: the TGI was > 100 µM in the experiment with ACHN renal; 71.2 µM with EKVX NSCLC; 39.3 µM in the experiment on HOP-62 NSCLC; 9.1 µM with HOP-92 NSCLC; > 100 µM in the experiment on LOX IMVI melanoma; 35.9 µM in the experiment on RXF 393 renal. Also, the TGI in the experiment on SK-MEL-2 melanoma and with UO-31 renal was > 100 µM in each case.
On to `CN1C(=O)CC2(C)c3cc(O)cc(Br)c3N(C)C12` (stereo not given), for which the TGI in the experiment with ACHN renal, in the experiment on EKVX NSCLC, in the experiment on HOP-62 NSCLC, in the experiment with HOP-92 NSCLC, in the experiment with LOX IMVI melanoma and with RXF 393 renal was > 100 µM in each case. Further, the TGI in the experiment with SK-MEL-2 melanoma and with UO-31 renal was > 100 µM throughout.
Take `CC(C)(C)N/N=C(\C(=O)Nc1cccc(Cl)c1)C1C(=O)Nc2ccccc2S1=O` (stereo not given): the TGI in the experiment on ACHN renal, in the experiment with EKVX NSCLC, with HOP-62 NSCLC, with HOP-92 NSCLC, in the experiment with LOX IMVI melanoma and in the experiment on RXF 393 renal was > 100 µM each time. Also, the TGI with SK-MEL-2 melanoma and in the experiment with UO-31 renal was > 100 µM throughout.
In the case of `CCc1ccccc1NC(=O)C(=O)C(C#N)c1ccccc1Cl` (stereo not given), the TGI in the experiment on ACHN renal is > 100 µM; in the experiment on EKVX NSCLC, > 100 µM; in the experiment with HOP-62 NSCLC, > 100 µM; in the experiment with HOP-92 NSCLC it was > 100 µM; in the experiment with LOX IMVI melanoma, 10.9 µM; with RXF 393 renal it was > 100 µM. For the same compound, the TGI with SK-MEL-2 melanoma and in the experiment on UO-31 renal was > 100 µM throughout.
Consider `CC1(C)NC(=O)N(CCCCCCN2C(=O)NC(C)(C)C2=O)C1=O`, for which the TGI in the experiment with ACHN renal, in the experiment with EKVX NSCLC, with HOP-92 NSCLC, in the experiment with LOX IMVI melanoma, with RXF 393 renal and in the experiment with SK-MEL-2 melanoma was > 100 µM each time. Further, the TGI in the experiment on UO-31 renal was > 100 µM.
With `N#CCCN(CCC#N)c1ccc(/C=C(/NC(=O)c2cc([N+](=O)[O-])ccc2Cl)C(=O)NN)cc1`, the TGI in the experiment with ACHN renal, in the experiment with EKVX NSCLC, in the experiment on HOP-62 NSCLC, with LOX IMVI melanoma, in the experiment on RXF 393 renal and in the experiment with SK-MEL-2 melanoma was > 100 µM throughout. Further, in the experiment on UO-31 renal, the TGI is > 100 µM.
With `COc1cccc(C=O)c1C(=O)c1cc(O)ccc1O`, the TGI with ACHN renal was 31.1 µM; in the experiment with EKVX NSCLC, 37.9 µM; with HOP-62 NSCLC, > 100 µM; with HOP-92 NSCLC, 33.1 µM; with LOX IMVI melanoma it was > 74 µM; in the experiment with RXF 393 renal it was 32.2 µM. In addition, the TGI is > 100 µM with SK-MEL-2 melanoma and 33.6 µM in the experiment on UO-31 renal.
On to `COC(=O)[C@H]1COC(=S)N1C(=O)[C@@H](C)[C@H](O)C(C)C`, for which the TGI in the experiment on ACHN renal, with EKVX NSCLC, in the experiment with HOP-62 NSCLC, in the experiment on HOP-92 NSCLC, in the experiment on LOX IMVI melanoma and with RXF 393 renal was > 100 µM in each case. The TGI in the experiment on SK-MEL-2 melanoma and with UO-31 renal was > 100 µM throughout.
Regarding `CC(=O)c1ccccc1NC(=O)C(=O)C(C(=O)c1ccc2ccccc2c1)C1OC(=O)c2ccccc21` (stereo not given), the TGI in the experiment with ACHN renal was > 100 µM; in the experiment on EKVX NSCLC it was > 100 µM; with HOP-62 NSCLC, 28.4 µM; in the experiment on HOP-92 NSCLC it was 41.1 µM; in the experiment with LOX IMVI melanoma, 26.4 µM; in the experiment with SK-MEL-2 melanoma, 24.9 µM. For the same compound, in the experiment on UO-31 renal, the TGI was found to be 29.1 µM.
With `[O-]/N=[N+](/[O-])C1CCCCC1=[N+]1CCOCC1` (stereo not given), the TGI in the experiment on ACHN renal, in the experiment on EKVX NSCLC, in the experiment on HOP-62 NSCLC, with HOP-92 NSCLC, in the experiment with SK-MEL-2 melanoma and in the experiment with UO-31 renal was > 100 µM throughout.
Turning to `COc1cccc2c1OC1Sc3ccccc3-c3nn(-c4ccccc4)c-2c31` (stereo not given), the TGI in the experiment on ACHN renal, in the experiment with EKVX NSCLC, with HOP-62 NSCLC, in the experiment with HOP-92 NSCLC, in the experiment on LOX IMVI melanoma and in the experiment with RXF 393 renal was > 100 µM each time. The TGI in the experiment with SK-MEL-2 melanoma and with UO-31 renal was > 100 µM in each case.
Consider `N/C=N/S(=O)(=O)c1ccc(NC(=O)COC(=O)c2cccc3c(=O)c4ccccc4[nH]c23)cc1`, for which the TGI in the experiment with ACHN renal, in the experiment on EKVX NSCLC, in the experiment with HOP-62 NSCLC, with LOX IMVI melanoma, in the experiment on RXF 393 renal and in the experiment with UO-31 renal was > 100 µM in each case.
Take `C/C(=N\NC(=S)N1CCN(c2ccccn2)CC1)c1ccccn1`: the GI50 was 0.00217 µM in the experiment with ACHN renal; 0.000138 µM in the experiment with EKVX NSCLC; 0.0475 µM in the experiment with HOP-62 NSCLC; 0.00295 µM in the experiment with HOP-92 NSCLC; 0.231 µM in the experiment with SK-MEL-2 melanoma; 0.141 µM in the experiment with UO-31 renal. Moreover, the TGI in the experiment on ACHN renal was determined as 8.52 µM; with DU-145 prostate, 14.1 µM; in the experiment on HOP-62 NSCLC, 12.7 µM; with HOP-92 NSCLC it was 13 µM; in the experiment on LOX IMVI melanoma, 14.4 µM; in the experiment on RXF 393 renal, 13.4 µM. The TGI came to 12.9 µM in the experiment with SK-MEL-2 melanoma and 6.8 µM with UO-31 renal.
Regarding `COC(=O)Cc1c([C@@]2(C)CCCC(C)(C)C2)ccc2c1C(=O)OC2`, the TGI in the experiment with ACHN renal turned out to be 48.2 µM; in the experiment on EKVX NSCLC it was 59.7 µM; with HOP-92 NSCLC it was 8.38 µM; in the experiment with LOX IMVI melanoma, 24.2 µM; in the experiment with RXF 393 renal it was 27.9 µM; in the experiment on UO-31 renal, 15.3 µM.
Take `COC(=O)[C@H](CC(C)C)NC(=O)[C@H](Cc1ccccc1)N1CC2C=CC1C2` (stereo not given in full): the TGI in the experiment with ACHN renal, in the experiment on EKVX NSCLC, with HOP-62 NSCLC, in the experiment with HOP-92 NSCLC, in the experiment with LOX IMVI melanoma and in the experiment with RXF 393 renal was > 100 µM in each case. Further, the TGI in the experiment on SK-MEL-2 melanoma and in the experiment with UO-31 renal was > 100 µM each time.
Regarding `Cc1cc(=O)[nH]c(CNC(=O)c2ccc3ccccc3c2)n1`, the TGI in the experiment with ACHN renal, in the experiment with EKVX NSCLC, with HOP-62 NSCLC, with HOP-92 NSCLC, in the experiment with LOX IMVI melanoma and in the experiment with RXF 393 renal was > 100 µM each time. For the same compound, the TGI with SK-MEL-2 melanoma and with UO-31 renal was > 100 µM in each case.
